According to patent publication US5316767A, “Whitening cosmetic composition” (priority 1990, dated 1994):
Converted amounts (≈) assume the structure as drawn. Numbered stars: 1 amine (or outer) side, 2 acyl side, 3 side chain; on linkers, the order of the positions; unused ones are H or OH. Bridge positions count the residues as written; N and C are the ends. Square brackets hold non-standard residues; d marks the D form. Peptide text beside a SMILES is read from it. I, II: the chains in the order shown. γGlu = O=C(O)[C@H](CCC(=O)[*:2])N[*:1]

What was measured:
B16-C melanoma cells = test: Melanin formation inhibitory activity in B16-C melanoma cells (Experiment 2); format: cell-based, mouse
Description: After 2 ml of MEM medium (manufactured by Nissui Pharmaceutical Co.) (serum concentration of 5%) was added in a 6-well culture plate, mouse-derived B16-C melanoma cells were plated at 2×10^5 cells/well and test compounds were then separately added. B16-C melanoma cells were cultured at 37° C. in 5% CO2 incubator. On Day 3 and Day 5, the medium was exchanged and at the same time, the test compounds were separately added. On Day 7, the medium was removed. The cells were trypsinized and resuspended in PBS and pelleted by centrifugation. […] The protein content in the cells and the amount of melanin formed were determined, whereby the amount of melanin formed (μg) per protein content (mg) were calculated. The protein content and the amount of melanin formed were quantitatively determined by the method of Bradford et al. [Analytical Biochemistry, 72, 248-254 (1976)] and by measuring absorbance of the test solution at 470 nm [Cancer Research, 45, 1474-1478 (1985)], respectively.

physchem [1] = conditions: pH 6.5
physchem [2] = conditions: pH 6.5; remark: listed apart in the source
physchem [3] = conditions: water
[4] = Heat stability: residual rate after heating at 100° C. for 20 minutes; conditions: pH 6.5
[5] = Storage stability: residual rate after allowing to stand at 40° C. for 30 days
[6] = 0.25 mM, first series (nothing added: 211.4 ± 11.45)
[7] = 0.5 mM, first series (nothing added: 211.4 ± 11.45)
[8] = 1.0 mM, first series (nothing added: 211.4 ± 11.45)

remaining at 20 min, 10000 µM (physchem [1]) [%] | remaining at 720 h, 10000 µM (physchem [2]) [%] | solubility (physchem [3]) [mg/mL] | SMILES | Melanin Content/Protein Content (B16-C melanoma cells; [6]) [µg/mg] | Melanin Content/Protein Content (B16-C melanoma cells; [7]) [µg/mg] | Melanin Content/Protein Content (B16-C melanoma cells; [8]) | Activity for inhibiting melanin formation as compared with γ-L-glutamyl-L-cysteine disulfide and oxidized glutathione (B16-C melanoma cells; Table 3) | solubility (Water solubility) [mg/mL] | remaining at 20 min, 10000 µM [4] [%] | Coloration ([5]; 40° C., 30 days, pH 6.5, 10 mM) | remaining at 720 h, 10000 µM ([5]; pH 6.5) [%] | Melanin Content/Protein Content (B16-C melanoma cells; 1.0 mM, second series (nothing added: 330.1 ± 22.5)) [µg/mg] | Melanin Content/Protein Content (B16-C melanoma cells; 2.0 mM, second series (nothing added: 330.1 ± 22.5)) [µg/mg] | Inhibition of melanin formation in B16-C melanoma cells (B16-C melanoma cells; Table 3) | Melanin Content/Protein Content (B16-C melanoma cells; 2.0 mM, first series (nothing added: 211.4 ± 11.45)) [µg/mg]
70 | 0 | – | N[C@@H](CCC(=O)N[C@@H](CS)C(=O)NCC(=O)O)C(=O)O [Glutathione, γ-L-glutamyl-L-cysteinyl-glycine] | – | – | – | – | – | – | – | – | – | – | – | –
100 | 100 | > 200 | CC(=O)N[C@@H](CCC(=O)N[C@@H](CSSC[C@H](NC(=O)CC[C@H](NC(C)=O)C(=O)O)C(=O)NCC(=O)O)C(=O)NCC(=O)O)C(=O)O [N,N'-diacetyl-oxidized glutathione, N,N'-diacetyl oxidized glutathione] (I: Ac-[γGlu]-Cys-Gly-OH / II: Ac-[γGlu]-Cys-Gly-OH; disulfide I:2-II:2) | – | – | – | – | – | – | – | – | 221.4 ± 18.6 | 198.1 ± 8.5 | significantly inhibiting melanin formation | –
100 | 100 | > 742 | N[C@@H](CCC(=O)N[C@@H](CSSC[C@H](N)C(=O)O)C(=O)O)C(=O)O [γ-L-glutamyl-L-cystine] | – | – | – | – | – | – | – | – | – | – | – | –

Continued, compound first:

SMILES | remaining at 20 min, 10000 µM (physchem [1]) [%] | remaining at 720 h, 10000 µM (physchem [2]) [%] | solubility (physchem [3]) [mg/mL] | Melanin Content/Protein Content (B16-C melanoma cells; [6]) [µg/mg] | Melanin Content/Protein Content (B16-C melanoma cells; [7]) [µg/mg] | Melanin Content/Protein Content (B16-C melanoma cells; [8]) | Activity for inhibiting melanin formation as compared with γ-L-glutamyl-L-cysteine disulfide and oxidized glutathione (B16-C melanoma cells; Table 3) | solubility (Water solubility) [mg/mL] | remaining at 20 min, 10000 µM [4] [%] | Coloration ([5]; 40° C., 30 days, pH 6.5, 10 mM) | remaining at 720 h, 10000 µM ([5]; pH 6.5) [%] | Melanin Content/Protein Content (B16-C melanoma cells; 1.0 mM, second series (nothing added: 330.1 ± 22.5)) [µg/mg] | Melanin Content/Protein Content (B16-C melanoma cells; 2.0 mM, second series (nothing added: 330.1 ± 22.5)) [µg/mg] | Inhibition of melanin formation in B16-C melanoma cells (B16-C melanoma cells; Table 3) | Melanin Content/Protein Content (B16-C melanoma cells; 2.0 mM, first series (nothing added: 211.4 ± 11.45)) [µg/mg]
OC[C@H]1O[C@@H](Oc2ccc(O)cc2)[C@H](O)[C@@H](O)[C@@H]1O [Arbutin] | 100 | 100 | 142 (≈ 520 mM) | 108.7 ± 13.04 | 89.2 ± 13.48 | growth inhibition | – | – | – | – | – | – | – | – | –
O=c1cc(CO)occ1O [Kojic acid] | – | – | – | 233.7 ± 14.37 | 202.4 ± 11.49 | 188.6 ± 9.93 µg/mg | poorer | 48.3 (≈ 340 mM) | 100 | colored | 100 | – | – | – | –
N[C@@H](CCC(=O)N[C@@H](CSSC[C@H](NC(=O)CC[C@H](N)C(=O)O)C(=O)O)C(=O)O)C(=O)O [γ-L-glutamyl-L-cysteine disulfide] | 100 | 100 | > 554 | – | 189.3 ± 10.56 | 155.6 ± 7.68 µg/mg | – | – | – | – | – | – | – | significantly inhibiting melanin formation | 154.7 ± 12.16
